Reference: PubChem BioAssay AID1919001 (Molecular Pharmacology Branch, DTP, NCI, 2023)
Each block holds one compound with its values, some of them ahead of it.

Test system: 699152-130-R-J1-PDC complex spheroid growth
Assay: Anticancer human tumor 699152-130-R-J1-PDC patient-derived pancreatic carcinoma cell line growth inhibition [AhR]
Details: for IC50: curve of first compound; for viability, T/C: stronger effect = lower value
Method in brief: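 Complex tumor spheroids co-cultured with HUVEC and human MSC stroma; AhR antagonists tested in combination with standard-of-care and investigational agents. Top concentration at or near clinical Cmax (else 10 microM), half-log dilutions; growth expressed as percent test/control.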

[1] = second compound 0.1 µM, first compound 0.0316 µM
[2] = second compound 0.1 µM, first compound 0.1 µM
[3] = second compound 0.1 µM, first compound 0.316 µM
[4] = second compound 0.1 µM, first compound 1 µM
[5] = second compound 0.1 µM, first compound 3.16 µM
[6] = second compound 0.1 µM, first compound 10 µM
[7] = second compound 0.316 µM, first compound 0.0316 µM
[8] = second compound 0.316 µM, first compound 0.1 µM
[9] = second compound 0.316 µM, first compound 0.316 µM
[10] = second compound 0.316 µM, first compound 1 µM
[11] = second compound 0.316 µM, first compound 3.16 µM
[12] = second compound 0.316 µM, first compound 10 µM
[13] = second compound 1 µM, first compound 0.0316 µM
[14] = second compound 1 µM, first compound 0.1 µM
[15] = second compound 1 µM, first compound 0.316 µM
[16] = second compound 1 µM, first compound 1 µM
[17] = second compound 1 µM, first compound 3.16 µM
[18] = second compound 1 µM, first compound 10 µM
[19] = second compound 3.16 µM, first compound 0.0316 µM
[20] = second compound 3.16 µM, first compound 0.1 µM
[21] = second compound 3.16 µM, first compound 0.316 µM
[22] = second compound 3.16 µM, first compound 1 µM
[23] = second compound 3.16 µM, first compound 3.16 µM
[24] = second compound 3.16 µM, first compound 10 µM
[25] = second compound 10 µM, first compound 0.0316 µM
[26] = second compound 10 µM, first compound 0.1 µM
[27] = second compound 10 µM, first compound 0.316 µM
[28] = second compound 10 µM, first compound 1 µM
[29] = second compound 10 µM, first compound 3.16 µM
[30] = second compound 10 µM, first compound 10 µM
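Also: compound exposure lasted 7 days after spheroids had grown for 3 days.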

IC50 (second compound 0.1 µM): 8.23 µM
IC50 (second compound 0.316 µM): 6.81 µM
IC50 (second compound 1 µM): 7.78 µM
IC50 (second compound 3.16 µM): 7.59 µM
IC50 (second compound 10 µM): 6.07 µM
Compound: Nc1ccccc1NC(=O)c1ccc(CNC(=O)OCc2cccnc2)cc1 + CC(CO)NC(=O)c1cc(-c2ccc(Cl)cc2)nn(-c2cnn(C)c2)c1=O
viability, T/C [1]: 98.3%
viability, T/C [2]: 99.1%
viability, T/C [3]: 99.3%
viability, T/C [4]: 99.2%
viability, T/C [5]: 72.6%
viability, T/C [6]: 45.4%
viability, T/C [7]: 97.3%
viability, T/C [8]: 110%
viability, T/C [9]: 107%
viability, T/C [10]: 91.3%
viability, T/C [11]: 78%
viability, T/C [12]: 36.5%
viability, T/C [13]: 97.7%
viability, T/C [14]: 91.4%
viability, T/C [15]: 98.4%
viability, T/C [16]: 92.9%
viability, T/C [17]: 71%
viability, T/C [18]: 44.1%
viability, T/C [19]: 90.2%
viability, T/C [20]: 84.7%
viability, T/C [21]: 97.2%
viability, T/C [22]: 82.2%
viability, T/C [23]: 74.1%
viability, T/C [24]: 42.4%
viability, T/C [25]: 96%
viability, T/C [26]: 88%
viability, T/C [27]: 86.1%
viability, T/C [28]: 83.7%
viability, T/C [29]: 70.8%
viability, T/C [30]: 34.4%

IC50 (second compound 0.1 µM): 0.156 µM
IC50 (second compound 0.316 µM): 0.47 µM
IC50 (second compound 1 µM): 0.39 µM
IC50 (second compound 3.16 µM): 0.458 µM
IC50 (second compound 10 µM): 1.74 µM
Compound: Nc1ccn(C2OC(CO)C(O)C2(F)F)c(=O)n1 (stereo not given) + Cc1ccccc1N=Nc1ccc(NC(=O)c2ccnn2C)c(C)c1
viability, T/C [1]: 52.3%
viability, T/C [2]: 55.2%
viability, T/C [3]: 43.9%
viability, T/C [4]: 45.8%
viability, T/C [5]: 39.6%
viability, T/C [6]: 33.9%
viability, T/C [7]: 57.9%
viability, T/C [8]: 58.4%
viability, T/C [9]: 52.1%
viability, T/C [10]: 46.8%
viability, T/C [11]: 40.1%
viability, T/C [12]: 41.6%
viability, T/C [13]: 68.2%
viability, T/C [14]: 58.7%
viability, T/C [15]: 50.2%
viability, T/C [16]: 46.4%
viability, T/C [17]: 44.2%
viability, T/C [18]: 43.1%
viability, T/C [19]: 58.6%
viability, T/C [20]: 57.1%
viability, T/C [21]: 48.4%
viability, T/C [22]: 48.3%
viability, T/C [23]: 44.5%
viability, T/C [24]: 39.5%
viability, T/C [25]: 74.9%
viability, T/C [26]: 61.9%
viability, T/C [27]: 56.2%
viability, T/C [28]: 51.8%
viability, T/C [29]: 48.5%
viability, T/C [30]: 47.2%
